Series [1] is described as follows: Molar enthalpy of transition or fusion. The following applies: Crystal; DSC.
For series [2] the following is noted: Crystal; DTA.

The structures appear in SMILES notation. Several values for one entry are separate records, joined by “and”; a condition that tells them apart may be missing. Identical values can stand only once. Numbers after ± are expanded uncertainties.

In the case of `C=C(C)[C@@H]1CC[C@]2(CO)CC[C@]3(C)[C@H](CC[C@@H]4[C@@]5(C)CC[C@H](O)C(C)(C)[C@@H]5CC[C@]43C)[C@@H]12` [betulin], the “Molar enthalpy of transition or fusion” value in series [1] was 52.1 kJ/mol and 53.6 kJ/mol and 55.2 kJ/mol. Also, the Normal melting temperature in series [2] was 257.5 ± 2 °C and 255.0 ± 2 °C and 254.8 ± 2 °C.

Values taken from the NIST ThermoML archive (doi:10.1016/j.fluid.2008.02.013).
